The source of these data is publication PMC3004370, “PI3Kα Inhibitors That Inhibit Metastasis” (Oncotarget, 2010).

The target in one test is T1, p110α (Homo sapiens, UniProt P42336).
T1 construct: His-tag; made in house; host or cells: Sf9 insect cells (baculovirus)
Nature of the test: Biochemical PI3K inhibition assay, p110α. To be noted: for IC50: 10 μM ATP, two hours; for effect of substitution on PI3Kα potency/selectivity (in words): SAR discussion. The method, then: PIK3CD was generously provided by Novartis Pharmaceuticals. […] Sf9 cells were lysed in a buffer containing 50 mM sodium phosphate, pH 8.0, 400 mM NaCl, 5% glycerol, 1% Triton X-100, 10 mM 2-mercaptoethanol, 1 mM orthovanadate, 10 mM imidazole, and sonicated on ice for 1 minute. Proteins were purified by adding Ni-NTA Superflow beads (Qiagen, Valencia, CA, USA) to the lysate and subsequent rolling for 30 min at 4°C. Beads were washed twice with 50 mM phosphate buffer, pH 8.0, 0.5 M NaCl, 50 mM Imidazole, 2 mM DTT and eluted in the same buffer but with 200 mM imidazole. Purified PI3K's were mixed 1:1 with glycerol and stored at -20°C.
J-series inhibitors were dissolved, serial diluted in DMSO and deposited into 96 well plates at a final DMSO concentration of 1%. We used a novel assay to determine their potency and selectivity. […] Reactions were timed after the addition of 10 μM ATP with 40 μCi/ml γ-32P-ATP (PerkinElmer, Waltham, MA, USA) and 2 mM MgCl2 (all final concentrations). The reactions were terminated after two hours by the addition of 2 N HCl and the lipids extracted with 1:1 MetOH/Chloroform. Radio-labeled phosphatidyl-inositol-3-phosphate in the extracted organic fraction was quantified after the addition of Microscint O (PerkinElmer) using a TopCount 96 well plate scintillation counter (PerkinElmer). IC50 concentrations and inhibition curves were calculated using Prism 5 (GraphPad Software, La Jolla, CA).

The target of a further test is T2, p110β (Homo sapiens, UniProt P42338).
T2 construct: His-tag; made in house; host or cells: Sf9 insect cells (baculovirus)
Nature of the test: Biochemical PI3K inhibition assay, p110β. The settings on record: for IC50: 10 μM ATP, two hours. An excerpt:
(§1) cDNA clones of PIK3CA, PIK3CB and PIK3CG were obtained from Origene (Rockville, MD, USA). PIK3CD was generously provided by Novartis Pharmaceuticals. The cDNA clones were sub-cloned into pFastBac His-Tag (Invitrogen, Carlsbad, CA, USA) and baculovirus clones were generated by the Bac-to-Bac expression system (Invitrogen). p110α, p110β and p110δ were co-expressed in Sf9 insect cells (Invitrogen) with a nSH2-iSH2 fragment of the regulatory subunit p85 comprising AA residues 322 to 600 [4]. p110γ was expressed without a regulatory subunit. Sf9 cells were lysed in a buffer containing 50 mM sodium phosphate, pH 8.0, 400 mM NaCl, 5% glycerol, 1% Triton X-100, 10 mM 2-mercaptoethanol, 1 mM orthovanadate, 10 mM imidazole, and sonicated on ice for 1 minute. Proteins were purified by adding Ni-NTA Superflow beads (Qiagen, Valencia, CA, USA) to the lysate and subsequent rolling for 30 min at 4°C. Beads were washed twice with 50 mM phosphate buffer, pH 8.0, 0.5 M NaCl, 50 mM Imidazole, 2 mM DTT and eluted in the same buffer but with 200 mM imidazole. Purified PI3K's were mixed 1:1 with glycerol and stored at -20°C.
(§2) J-series inhibitors were dissolved, serial diluted in DMSO and deposited into 96 well plates at a final DMSO concentration of 1%. We used a novel assay to determine their potency and selectivity. In brief, micelles of 2.5 μg L-a-Phosphatidylinositol and 2.5 μg 1,2-Diacyl-sn-glycero-3-phospho-L-serine were formed by sonication, mixed with the individual PI3K isoforms and added to the drug dilutions in a reaction buffer containing 10 mM HEPES, 25 mM NaCl, 0.125 μg/μl BSA, and 2 mM BME (final concentrations). Reactions were timed after the addition of 10 μM ATP with 40 μCi/ml γ-32P-ATP (PerkinElmer, Waltham, MA, USA) and 2 mM MgCl2 (all final concentrations). The reactions were terminated after two hours by the addition of 2 N HCl and the lipids extracted with 1:1 MetOH/Chloroform. Radio-labeled phosphatidyl-inositol-3-phosphate in the extracted organic fraction was quantified after the addition of Microscint O (PerkinElmer) using a TopCount 96 well plate scintillation counter (PerkinElmer). IC50 concentrations and inhibition curves were calculated using Prism 5 (GraphPad Software, La Jolla, CA).

For the next test, the target named is T3, p110γ (Homo sapiens, UniProt P48736).
T3 construct: His-tag; made in house; host or cells: Sf9 insect cells (baculovirus)
Nature of the test: Biochemical PI3K inhibition assay, p110γ. To be noted: for IC50: 10 μM ATP, two hours, no regulatory subunit.
Excerpt: as §1, §2

The target in another test is T4, p110δ (Homo sapiens, UniProt O00329).
T4 construct: His-tag; made in house; host or cells: Sf9 insect cells (baculovirus)
Description: Biochemical PI3K inhibition assay, p110δ. The settings on record: for IC50: 10 μM ATP, two hours.
Excerpt: as §1, §2

In test [1] the test system is phosphorylation of Akt1 and Akt2 in HCT116 cells. Nature of the test: P-Akt western analysis in cells. In kind it is cell-based, human. The settings on record: 6 hours, concentrations that inhibited cell growth. As to the method: Phopspho-Akt levels were assayed in HCT116 cells. 1x10^6 cells/well were seeded in six-well plates and serum starved for 2 hours in McCoy's 5A medium. Drugs were pre-mixed with complete medium containing 10% FBS and incubated with the cells for 6 hours. Cells were lysed on ice with 100 mM Tris-HCl, pH 7.0, 10% 2-mercaptoethanol, 4% SDS, 20% glycerol, 0.05% Bromophenol blue, 20 μl 1 mM NaF, 1 mM Na3VO4, and Complete Protease Inhibitor Cocktail Tablet (Roche, Nutley, NJ, USA) without EDTA and sonicated for 30 seconds. Phospho-Akt was assayed with Phospho-Akt (Ser473) antibody (#9271, Cell Signaling Technology, Danvers, MA, USA). Subsequently the membrane was stripped and incubated with Akt1 (D-17) antibody (sc-7126, Santa Cruz Biotechnology,Santa Cruz, CA, USA)) for loading control.

For test [2], the system named is subcutaneous HCT116 xenograft tumors. Description: Xenograft tumor model. The test is classed as in vivo. The settings on record: nude mice, 150 mg/kg IP daily for three weeks. As to the method: (§3) Tumor xenografts were established by injecting 5x10^6 HCT116 cells subcutaneously into the right flanks of female nude mice. Tumor volume was measured twice weekly using electronic calipers and calculated as length x width^2 x 0.5. After tumors reached an average volume of 50 mm^3, animals were treated daily with drugs at 150 mg/kg via IP injection for three weeks. Tumor phospho-Akt levels were determined following harvest on the last day of the study. Xenografts were excised, snap frozen in liquid nitrogen and pulverized with a pestle. Homogenized tissue was re-suspended in lysis buffer (Cell Signaling Technology) and protein contents normalized by Bradford assay (Bio-Rad Laboratories, Hercules, CA, USA). Western blots were performed as described above.

Test [3] relates to P-Akt in HCT116 xenografts. Description: Intra-tumor P-Akt levels in xenografts. In kind it is in vivo, nude mice. To be noted: post IP injection. As to the method:
as §3

Test [4] relates to Intraspleenic-injected HCT116 liver and lung metastases. Description: Intraspleenic tumor model (metastasis). The test is classed as in vivo, mice. To be noted: 150 mg/kg IP daily, three weeks. The method, then: Intraspleenic-injected HCT116 liver and lung metastases in NOD.Cg-Prkdcscid Il2rgtm1Wjl/SzJ mice (Jackson Laboratory, Bar Harbor, ME, USA) were generated as described in Erikson et. al.. J-series compounds were solubilized in 1:1 DMSO/Cremophor EL (Sigma-Aldrich) and diluted 2.3-fold in water to a final concentration of 7.5 mg/ml. 400 μl of this formulation (150 mg/kg) was injected intraperitoneally (IP) once a day for three weeks, beginning the third day post-surgery. Mice were sacrificed after the treatment and the liver, lungs, and spleen sampled. DNA was extracted from organs with the DNeasy Blood & Tissue Kit (Qiagen). The qPCR assay used for quantification of human DNA in mouse organs has been described. All mouse protocols were designed in accordance with the NIH Guide for the Care and Use of Laboratory Animals and approved by the Institutional Animal Care and Use Committee.

T2 sequence (P42338 whole entry): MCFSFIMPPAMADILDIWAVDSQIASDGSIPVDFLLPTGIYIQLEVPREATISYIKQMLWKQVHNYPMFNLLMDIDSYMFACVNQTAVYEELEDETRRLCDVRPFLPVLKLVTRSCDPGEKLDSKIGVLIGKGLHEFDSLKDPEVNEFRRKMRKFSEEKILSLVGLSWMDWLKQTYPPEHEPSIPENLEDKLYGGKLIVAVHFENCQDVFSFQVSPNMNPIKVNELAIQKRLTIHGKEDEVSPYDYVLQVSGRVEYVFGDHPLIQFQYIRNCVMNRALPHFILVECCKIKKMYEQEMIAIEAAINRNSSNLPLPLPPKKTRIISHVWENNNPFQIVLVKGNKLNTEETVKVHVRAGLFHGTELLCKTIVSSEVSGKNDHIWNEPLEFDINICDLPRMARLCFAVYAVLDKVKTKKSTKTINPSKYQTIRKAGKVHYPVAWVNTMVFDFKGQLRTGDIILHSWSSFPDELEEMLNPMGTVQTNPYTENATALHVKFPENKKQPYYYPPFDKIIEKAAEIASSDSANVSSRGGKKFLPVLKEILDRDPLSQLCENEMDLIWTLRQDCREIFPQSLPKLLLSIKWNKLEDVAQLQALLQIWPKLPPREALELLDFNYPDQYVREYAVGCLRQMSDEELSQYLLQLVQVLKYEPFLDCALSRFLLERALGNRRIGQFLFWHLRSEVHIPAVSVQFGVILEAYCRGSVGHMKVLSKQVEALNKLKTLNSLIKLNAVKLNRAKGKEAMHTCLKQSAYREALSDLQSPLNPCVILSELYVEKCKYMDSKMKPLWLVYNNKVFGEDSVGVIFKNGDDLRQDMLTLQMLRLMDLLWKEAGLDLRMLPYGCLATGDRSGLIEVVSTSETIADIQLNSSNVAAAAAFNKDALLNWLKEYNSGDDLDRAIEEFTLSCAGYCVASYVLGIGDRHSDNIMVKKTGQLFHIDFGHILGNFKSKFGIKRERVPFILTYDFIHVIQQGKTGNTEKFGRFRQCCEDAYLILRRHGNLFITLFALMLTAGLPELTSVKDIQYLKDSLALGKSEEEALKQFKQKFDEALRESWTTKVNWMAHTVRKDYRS
T2 sequence (P27986 322-600 partner limits assumed): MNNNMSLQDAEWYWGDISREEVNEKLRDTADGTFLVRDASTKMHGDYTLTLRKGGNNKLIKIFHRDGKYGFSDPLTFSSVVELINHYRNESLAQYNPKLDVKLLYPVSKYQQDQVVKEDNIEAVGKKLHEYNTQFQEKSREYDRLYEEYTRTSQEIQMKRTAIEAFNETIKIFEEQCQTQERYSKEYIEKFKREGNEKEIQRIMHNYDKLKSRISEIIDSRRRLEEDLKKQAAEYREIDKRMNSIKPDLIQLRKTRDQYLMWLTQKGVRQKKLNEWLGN
T3 sequence (P48736 whole entry): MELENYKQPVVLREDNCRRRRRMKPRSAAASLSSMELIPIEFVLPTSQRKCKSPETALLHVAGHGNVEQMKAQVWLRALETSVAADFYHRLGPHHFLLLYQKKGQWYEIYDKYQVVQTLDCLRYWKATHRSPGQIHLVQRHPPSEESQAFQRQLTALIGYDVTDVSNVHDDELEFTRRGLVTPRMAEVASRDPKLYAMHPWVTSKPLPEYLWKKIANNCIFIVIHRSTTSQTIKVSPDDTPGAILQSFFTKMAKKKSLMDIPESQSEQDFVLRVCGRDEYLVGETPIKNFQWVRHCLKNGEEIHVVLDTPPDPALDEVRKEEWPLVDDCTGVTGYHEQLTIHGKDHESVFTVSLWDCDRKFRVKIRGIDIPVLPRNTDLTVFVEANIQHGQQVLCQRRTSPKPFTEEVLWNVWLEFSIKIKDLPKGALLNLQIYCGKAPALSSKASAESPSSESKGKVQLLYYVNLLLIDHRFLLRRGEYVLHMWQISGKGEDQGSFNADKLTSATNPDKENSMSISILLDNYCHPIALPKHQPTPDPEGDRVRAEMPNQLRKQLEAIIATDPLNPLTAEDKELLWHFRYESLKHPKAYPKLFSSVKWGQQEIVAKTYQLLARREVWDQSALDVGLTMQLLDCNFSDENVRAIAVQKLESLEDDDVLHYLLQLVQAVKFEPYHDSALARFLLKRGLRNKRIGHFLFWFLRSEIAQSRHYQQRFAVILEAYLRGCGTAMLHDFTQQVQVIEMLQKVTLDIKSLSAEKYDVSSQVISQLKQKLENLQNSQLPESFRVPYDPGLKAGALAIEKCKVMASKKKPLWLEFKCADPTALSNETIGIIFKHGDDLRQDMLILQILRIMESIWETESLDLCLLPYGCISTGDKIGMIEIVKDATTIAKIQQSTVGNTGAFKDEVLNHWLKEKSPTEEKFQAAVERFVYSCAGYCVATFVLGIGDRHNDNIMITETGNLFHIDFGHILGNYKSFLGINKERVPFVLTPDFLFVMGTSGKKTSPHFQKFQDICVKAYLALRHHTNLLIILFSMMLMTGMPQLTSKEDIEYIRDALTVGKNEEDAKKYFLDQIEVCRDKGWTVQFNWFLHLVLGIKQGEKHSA
T4 sequence (O00329 whole entry): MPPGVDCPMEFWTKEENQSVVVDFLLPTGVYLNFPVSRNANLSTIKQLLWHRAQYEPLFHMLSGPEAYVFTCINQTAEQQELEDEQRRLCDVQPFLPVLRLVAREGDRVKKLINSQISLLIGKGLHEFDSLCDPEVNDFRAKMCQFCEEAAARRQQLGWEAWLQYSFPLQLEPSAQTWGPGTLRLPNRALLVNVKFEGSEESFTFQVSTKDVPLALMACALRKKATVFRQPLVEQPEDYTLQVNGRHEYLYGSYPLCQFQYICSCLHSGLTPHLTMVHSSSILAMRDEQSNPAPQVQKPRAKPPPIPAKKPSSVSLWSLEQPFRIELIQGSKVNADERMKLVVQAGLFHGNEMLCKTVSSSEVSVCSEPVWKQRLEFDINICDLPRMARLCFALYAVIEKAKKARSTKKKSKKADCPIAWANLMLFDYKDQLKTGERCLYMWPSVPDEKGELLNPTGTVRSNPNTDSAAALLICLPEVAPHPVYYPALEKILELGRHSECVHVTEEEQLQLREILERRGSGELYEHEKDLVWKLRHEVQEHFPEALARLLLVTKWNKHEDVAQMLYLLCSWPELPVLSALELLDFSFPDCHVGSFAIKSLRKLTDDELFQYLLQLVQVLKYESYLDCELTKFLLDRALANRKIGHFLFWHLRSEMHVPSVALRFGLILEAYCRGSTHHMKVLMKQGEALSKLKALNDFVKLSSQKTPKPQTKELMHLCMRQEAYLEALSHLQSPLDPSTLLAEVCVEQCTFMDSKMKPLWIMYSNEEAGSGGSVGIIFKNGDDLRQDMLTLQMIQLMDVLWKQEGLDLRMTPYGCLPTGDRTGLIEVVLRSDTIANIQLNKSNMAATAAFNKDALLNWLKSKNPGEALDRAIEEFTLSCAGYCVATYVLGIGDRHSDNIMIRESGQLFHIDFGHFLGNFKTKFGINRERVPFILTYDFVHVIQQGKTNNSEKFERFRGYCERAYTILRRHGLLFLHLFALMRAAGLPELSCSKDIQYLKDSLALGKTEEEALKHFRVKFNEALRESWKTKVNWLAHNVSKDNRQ
T4 sequence (P27986 322-600 partner limits assumed): as the sequence (P27986 322-600 partner limits assumed) above
T1 sequence (P42336 whole entry): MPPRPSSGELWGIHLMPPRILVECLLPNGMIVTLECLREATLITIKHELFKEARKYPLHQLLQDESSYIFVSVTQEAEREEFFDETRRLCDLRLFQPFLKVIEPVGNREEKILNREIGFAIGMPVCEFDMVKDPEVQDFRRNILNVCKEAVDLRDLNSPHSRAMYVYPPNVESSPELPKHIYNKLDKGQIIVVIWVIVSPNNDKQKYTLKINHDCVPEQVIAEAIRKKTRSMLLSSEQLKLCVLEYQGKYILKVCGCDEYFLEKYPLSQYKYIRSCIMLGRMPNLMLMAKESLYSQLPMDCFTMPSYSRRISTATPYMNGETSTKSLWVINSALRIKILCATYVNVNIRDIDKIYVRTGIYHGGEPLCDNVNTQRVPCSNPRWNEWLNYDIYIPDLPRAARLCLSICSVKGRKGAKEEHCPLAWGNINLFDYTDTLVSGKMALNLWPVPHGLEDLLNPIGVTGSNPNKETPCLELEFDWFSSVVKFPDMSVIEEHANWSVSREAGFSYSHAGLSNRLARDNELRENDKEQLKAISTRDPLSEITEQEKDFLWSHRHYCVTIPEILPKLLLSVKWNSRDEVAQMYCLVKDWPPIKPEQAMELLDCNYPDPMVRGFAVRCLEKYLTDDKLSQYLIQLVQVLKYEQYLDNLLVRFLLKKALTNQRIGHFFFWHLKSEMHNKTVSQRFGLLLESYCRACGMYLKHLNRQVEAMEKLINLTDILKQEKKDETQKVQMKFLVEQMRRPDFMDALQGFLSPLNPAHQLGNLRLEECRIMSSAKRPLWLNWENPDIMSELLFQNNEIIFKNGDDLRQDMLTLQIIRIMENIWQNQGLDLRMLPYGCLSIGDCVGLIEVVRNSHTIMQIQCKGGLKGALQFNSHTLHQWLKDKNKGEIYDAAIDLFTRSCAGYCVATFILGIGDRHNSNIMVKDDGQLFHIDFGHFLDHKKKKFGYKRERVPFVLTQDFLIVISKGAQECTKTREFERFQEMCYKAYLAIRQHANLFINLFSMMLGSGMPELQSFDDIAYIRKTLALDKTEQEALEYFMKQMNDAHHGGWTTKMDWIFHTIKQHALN
T1 sequence (P27986 322-600 partner limits assumed): as the sequence (P27986 322-600 partner limits assumed) above

Turning to `CCN(/N=C/c1cnc2ccc(Br)cn12)S(=O)(=O)c1cc([N+](=O)[O-])c(N)cc1C` [J124-I], the IC50 (in general, the concentration needed to halve the response being measured) on p110α was 2 nM; at p110β, 46 nM; against p110γ it was 73 nM; against p110δ, 26 nM. Moreover, on p110α (compared to J32), the “increase of inhibitory activity for PI3Kα” value is 7.5 fold. The “phosphorylation of Akt1 and Akt2 (western blot)” value in test [1] is given as “inhibitory effect”. In test [2], the “anti-tumor activity against subcutaneous HCT116 xenograft tumors” value is given as “Only a minor anti-tumor activity”. Further, the “intra-tumor P-Akt levels” value in test [3] is “reduced up to 3 hours”.
Regarding `CCN(/N=C/c1cnc2ccc(Br)cn12)S(=O)(=O)c1cc([N+](=O)[O-])c(N)cc1Cl` [J128], the IC50 was found to be 4 nM on p110α, 130 nM on p110β, 250 nM at p110γ and 110 nM at p110δ. In addition, the “metastatic lesions in the lungs” value in test [4] was “no lesions”. Also, the “metastatic foci in the liver (histopathology)” value in test [4] (compared to vehicle) is recorded as “few, if any, metastatic foci”. The “reduction in primary tumor burden in the spleen (real-time PCR)” value in test [4] (compared to vehicle) is on record as ~ 50%. Besides, the “reduction of metastatic liver burden (real-time PCR)” value in test [4] (compared to vehicle) came out at 9 fold.
Consider `CCN(/N=C/c1cnc2ccc(Br)cn12)S(=O)(=O)c1cc([N+](=O)[O-])ccc1C` [J32], for which the IC50 turned out to be 15 nM against p110α, 1200 nM on p110β, 620 nM at p110γ and 1400 nM on p110δ. Moreover, the “increase of selectivity against the other three isoforms” value at p110α (J32 versus J27) is listed as “up to 8 fold”. In addition, the “effect of substitution on PI3Kα potency/selectivity (in words)” value at p110α is listed as “potency for PI3Kα was retained”. The “anti-tumor activity against subcutaneous HCT116 xenograft tumors” value in test [2] was “Only a minor anti-tumor activity”.
As to `Cc1ccc([N+](=O)[O-])cc1S(=O)(=O)N(CCC#N)/N=C/c1cnc2ccc(Br)cn12` [J47], the IC50 against p110α came out at 25 nM; against p110β, 149 nM; against p110γ, 192 nM; against p110δ it was 169 nM. In addition, the “effect of substitution on PI3Kα potency/selectivity (in words)” value on p110α was “did not increase potency”.
Turning to `CCN(/N=C/c1cnc2ccc(Br)cn12)S(=O)(=O)c1cc([N+](=O)[O-])c(NCC(=O)NC(Cc2ccccc2)C(=O)O)cc1C` (centres unmarked) [J171], the IC50 against p110α was found to be 19 nM; against p110β, 12800 nM; against p110γ, 1150 nM; against p110δ, 1960 nM. Besides, the “effect of substitution on PI3Kα potency/selectivity (in words)” value at p110α was “retained nanomolar potencies”. Further, the “selectivity against PI3Kβ” value on p110β (relative to PI3Kα) is reported as ~ 670 fold. In addition, at p110γ (relative to PI3Kα), the “selectivity against PI3Kγ” value is on record as 60 fold. Also, the “selectivity against PI3Kδ” value at p110δ (relative to PI3Kα) is recorded as 100 fold.
With `CCN(/N=C/c1cnc2ccc(Br)cn12)S(=O)(=O)c1ccccc1C` [J40], the IC50 on p110α turned out to be 20000 nM; at p110β it was 61000 nM; on p110γ, 180000 nM; against p110δ it was 53000 nM. Moreover, at p110α (compared to J32), the “drop/decrease in inhibitory activity for PI3Kα” value is > 1333 fold.
